Patent US20220241311A1, “METHODS AND MATERIALS FOR TREATING GLYCOSYLATION DISORDERS” (priority 2018, published 2022)

Test system: PGM1-defective patient fibroblasts
Test: Nucleotide sugar analysis (UPLC-PDA), patient fibroblasts
Type: cell-based, human
Description: Levels of nucleotides and sugar-nucleotides were determined. Fibroblast cell pellets (5×10^6 cells per sample) were lysed and extracted in 0.37 ml ice-cold 0.5 M perchloric acid with sonication on ice. Samples were neutralized with 86 μl ice-cold neutralization solution (2.5 M KOH in 1.5 M K2HPO4) after 5 minute sonication. To remove precipitated potassium perchlorate neutralized samples were centrifuged at 4° C. and 16,400×g for 10 minutes and filtered with 0.2 μm filters. Nucleotides and sugar-nucleotides were immediately analyzed and separated via ion-pair reverse phased chromatography using an Acquity HSS T3 column (150 mm×2.1 mm, 1.7 μm, Waters) connected to an Acquity H-class UPLC system. The column temperature was set to 40° C. and the column was equilibrated with solvent A (50 mM potassium phosphate buffer, 8 mM tetrabutylammonium hydrogensulfate, pH 6.5) at a flow rate of 0.45 ml min^−1. Autosampler temperature was maintained at 6° C. […] Nucleotides were detected by Acquity PDA detector (Waters, 260 nm) and quantified using ultrapure standards (Sigma). Data acquisition and processing was performed with the Empower3 software suite (Waters).
Nucleotide sugars were measured with serum starvation during 18 hours of culturing and without of serum starvation and applying normal media.

[1] = Patient 8, 1 d + 0.75 mM Galactose
[2] = Patient 8, 4 d + 0.75 mM Galactose
[3] = listed as 'i e' (patient cell-line 2013Y), 1 d 2 mM Galactose
[4] = listed as 'i e' (patient cell-line 2013Y), 1 d + 0.75 mM Galactose
[5] = listed as 'i e' (patient cell-line 2013Y), 4 d 2 mM Galactose
[6] = listed as 'i e' (patient cell-line 2013Y), 4 d + 0.75 mM Galactose

SMILES: O=C[C@H](O)[C@@H](O)[C@@H](O)[C@H](O)CO [D-gal, D-galactose]
- ADP (Patient 8, 1 d 2 mM Galactose): 510.69 pmol/mio cells
- AMP (Patient 8, 1 d 2 mM Galactose): 15.28 pmol/mio cells
- ATP (Patient 8, 1 d 2 mM Galactose): 2089.09 pmol/mio cells
- CTP (Patient 8, 1 d 2 mM Galactose): 274.92 pmol/mio cells
- GDP (Patient 8, 1 d 2 mM Galactose): 213.67 pmol/mio cells
- GDP-Man (Patient 8, 1 d 2 mM Galactose): 29.66 pmol/mio cells
- GTP (Patient 8, 1 d 2 mM Galactose): 434.86 pmol/mio cells
- UDP (Patient 8, 1 d 2 mM Galactose): 153.67 pmol/mio cells
- UDP-Gal (Patient 8, 1 d 2 mM Galactose): 398.68 pmol/mio cells
- UDP-Glc (Patient 8, 1 d 2 mM Galactose): 613.75 pmol/mio cells
- UDP-GlcNAc (Patient 8, 1 d 2 mM Galactose): 31.04 pmol/mio cells
- UTP (Patient 8, 1 d 2 mM Galactose): 1183.32 pmol/mio cells
- cAMP (Patient 8, 1 d 2 mM Galactose): 75.29 pmol/mio cells
- ADP [1]: 429.27 pmol/mio cells
- AMP [1]: 7.31 pmol/mio cells
- ATP [1]: 1855.71 pmol/mio cells
- CTP [1]: 222.68 pmol/mio cells
- GDP [1]: 188.04 pmol/mio cells
- GDP-Man [1]: 31.71 pmol/mio cells
- GTP [1]: 387.39 pmol/mio cells
- UDP [1]: 120.53 pmol/mio cells
- UDP-Gal [1]: 273.66 pmol/mio cells
- UDP-Glc [1]: 445.76 pmol/mio cells
- UDP-GlcNAc [1]: 40.27 pmol/mio cells
- UTP [1]: 1037.93 pmol/mio cells
- cAMP [1]: 72.84 pmol/mio cells
- ADP (Patient 8, 4 d 2 mM Galactose): 695.56 pmol/mio cells
- AMP (Patient 8, 4 d 2 mM Galactose): 22.78 pmol/mio cells
- ATP (Patient 8, 4 d 2 mM Galactose): 3192.45 pmol/mio cells
- CTP (Patient 8, 4 d 2 mM Galactose): 282.74 pmol/mio cells
- GDP (Patient 8, 4 d 2 mM Galactose): 260.45 pmol/mio cells
- GDP-Man (Patient 8, 4 d 2 mM Galactose): 95.43 pmol/mio cells
- GTP (Patient 8, 4 d 2 mM Galactose): 659.21 pmol/mio cells
- UDP (Patient 8, 4 d 2 mM Galactose): 169.63 pmol/mio cells
- UDP-Gal (Patient 8, 4 d 2 mM Galactose): 315.21 pmol/mio cells
- UDP-Glc (Patient 8, 4 d 2 mM Galactose): 493.54 pmol/mio cells
- UDP-GlcNAc (Patient 8, 4 d 2 mM Galactose): 56.13 pmol/mio cells
- UTP (Patient 8, 4 d 2 mM Galactose): 1293.27 pmol/mio cells
- cAMP (Patient 8, 4 d 2 mM Galactose): 88.40 pmol/mio cells
- ADP [2]: 655.53 pmol/mio cells
- AMP [2]: 18.87 pmol/mio cells
- ATP [2]: 3363.84 pmol/mio cells
- CTP [2]: 274.92 pmol/mio cells
- GDP [2]: 277.54 pmol/mio cells
- GDP-Man [2]: 101.37 pmol/mio cells
- GTP [2]: 682.40 pmol/mio cells
- UDP [2]: 174.89 pmol/mio cells
- UDP-Gal [2]: 283.69 pmol/mio cells
- UDP-Glc [2]: 442.43 pmol/mio cells
- UDP-GlcNAc [2]: 6.33 pmol/mio cells
- UTP [2]: 1364.91 pmol/mio cells
- cAMP [2]: 74.47 pmol/mio cells
- UDP-Glc and UDP-Gal levels (all patient cell lines, 4 days of D-gal supplementation): remained significantly increased
- ADP [3]: 318.92 pmol/mio cells
- AMP [3]: 2.63 pmol/mio cells
- ATP [3]: 2918.66 pmol/mio cells
- CTP [3]: 295.58 pmol/mio cells
- GDP [3]: 186.06 pmol/mio cells
- GDP-Man [3]: 56.30 pmol/mio cells
- GTP [3]: 566.56 pmol/mio cells
- UDP [3]: 42.70 pmol/mio cells
- UDP-Gal [3]: 503.56 pmol/mio cells
- UDP-Glc [3]: 637.55 pmol/mio cells
- UDP-GlcNAc [3]: 211.57 pmol/mio cells
- UTP [3]: 981.09 pmol/mio cells
- cAMP [3]: 70.73 pmol/mio cells
- ADP [4]: 407.13 pmol/mio cells
- AMP [4]: 8.23 pmol/mio cells
- ATP [4]: 3422.01 pmol/mio cells
- CTP [4]: 339.16 pmol/mio cells
- GDP [4]: 187.52 pmol/mio cells
- GDP-Man [4]: 107.59 pmol/mio cells
- GTP [4]: 681.74 pmol/mio cells
- UDP [4]: 115.84 pmol/mio cells
- UDP-Gal [4]: 431.17 pmol/mio cells
- UDP-Glc [4]: 703.36 pmol/mio cells
- UDP-GlcNAc [4]: 21.89 pmol/mio cells
- UTP [4]: 1494.83 pmol/mio cells
- cAMP [4]: 91.16 pmol/mio cells
- ADP [5]: 382.44 pmol/mio cells
- AMP [5]: 16.17 pmol/mio cells
- ATP [5]: 3460.76 pmol/mio cells
- CTP [5]: 241.06 pmol/mio cells
- GDP [5]: 242.68 pmol/mio cells
- GDP-Man [5]: 147.29 pmol/mio cells
- GTP [5]: 681.71 pmol/mio cells
- UDP [5]: 43.26 pmol/mio cells
- UDP-Gal [5]: 394.31 pmol/mio cells
- UDP-Glc [5]: 616.89 pmol/mio cells
- UTP [5]: 1316.26 pmol/mio cells
- cAMP [5]: 98.61 pmol/mio cells
- ADP [6]: 349.53 pmol/mio cells
- AMP [6]: 3.85 pmol/mio cells
- ATP [6]: 3484.52 pmol/mio cells
- CTP [6]: 280.34 pmol/mio cells
- GDP [6]: 225.14 pmol/mio cells
- GDP-Man [6]: 151.18 pmol/mio cells
- GTP [6]: 686.35 pmol/mio cells
- UDP [6]: 39.53 pmol/mio cells
- UDP-Gal [6]: 290.54 pmol/mio cells
- UDP-Glc [6]: 487.94 pmol/mio cells
- UDP-GlcNAc [6]: 354.84 pmol/mio cells
- UTP [6]: 944.20 pmol/mio cells
- cAMP [6]: 68.63 pmol/mio cells
